Reference: patent US4504655A, “Substances potentiating the activity of antibiotics and their production” (Takeda Chemical Industries, Ltd., priority 1981, dated 1985)

Key:
Assay type in all cases: cell-based
[1] = tested on: Escherichia coli IFO 12734; assay: Antibiotic-potentiating activity, paper disc growth inhibition zone, Escherichia coli IFO 12734
Description: The potency of the compound of the formula (II) can be determined, for instance, by the cup method or paper disc method using bouillon agar containing 0.05 μg/ml of cefmenoxime with Escherichia coli IFO 12734 as the test organism. […]
(§1) *The test was performed using a bouillon agar medium containing the
antibiotic as specified and a paper disc, 8 mm in diameter.
**A paper disc, 8 mm in diameter, was impregnated with 25 μl of the […]

[2] = tested on: Proteus mirabilis ATCC 21100; assay: Antibiotic-potentiating activity, paper disc growth inhibition zone, Proteus mirabilis ATCC 21100
Description: as §1
antibiotic as specified and a paper disc, 8 mm in diameter. […]
*The test was performed under the same conditions as noted for Table 1
except for the test organism and the concentration of each coexisting

[3] = tested on: Escherichia coli IFO 12734; assay: Inhibition of growth of Escherichia coli in liquid culture (absorbance at 600 nm); conditions: for Absorbance at 600 nm: 37° C., 2 hours
Description: Table 5: Inhibition of growth of Escherichia coli IFO 12734 in the copresence of F2 (obtained in Example 1) and cephalexin or cefmenoxime.
(§2) To 8 ml of YAB medium (1.75% Difco antibiotic medium No. 3, 0.5% Difco yeast extract) containing 12% (w/v) of sucrose, there were added 1 ml of water, 50 μg/ml cephalexin solution or 10 μg/ml cefmenoxime solution, and the medium was inoculated with 1 ml of a preculture in YAB medium at an early logarithmic growth phase and incubated with shaking at 37° C. for 2 hours. Thereafter, the absorbance of the culture broth was measured at 600 nm using a Shimadzu-Bausch & Lomb Spectronic 20 colorimeter.

Escherichia coli = assay: Observation of the culture broths under a phase contrast microscope; conditions: in the presence of cephalexin or cefmenoxime
Description: as §2

[4] = tested on: Escherichia coli IFO 12734; assay: Inhibition of growth of Escherichia coli in liquid culture (absorbance at 600 nm); conditions: 37° C., 2 hours
[5] = F2 of Example 1, 1 μg/ml in test solution, no addition
[6] = F2 of Example 1, 5 μg/ml in test solution, no addition
[7] = F2 of Example 1, 25 μg/ml in test solution, no addition
[8] = F2 of Example 1, 125 μg/ml in test solution, no addition
[9] = F2 of Example 1, 1000 μg/ml in test solution, no addition
[10] = F2 of Example 3, 1 μg/ml in test solution, no addition
[11] = F2 of Example 3, 5 μg/ml in test solution, no addition
[12] = F2 of Example 3, 25 μg/ml in test solution, no addition
[13] = F2 of Example 3, 125 μg/ml in test solution, no addition
[14] = F2 of Example 3, 1000 μg/ml in test solution, no addition

SMILES: CC(=O)NC1C(OC2CC(C(=O)NCCS(=O)(=O)O)NC2CO)OC(CO)C(OS(=O)(=O)O)C1O (stereo not drawn) [F2]
- Diameter of growth inhibition zone ([1]; F2 of Example 1, 1 μg/ml in test solution, 0.03 μg/ml mecillinam): < 8 mm
- Diameter of growth inhibition zone ([1]; F2 of Example 1, 1 μg/ml in test solution, 0.05 μg/ml cefmenoxime): 10 mm
- Diameter of growth inhibition zone [1, 5]: < 8 mm
- Diameter of growth inhibition zone ([1]; F2 of Example 1, 5 μg/ml in test solution, 0.03 μg/ml mecillinam): 10 mm
- Diameter of growth inhibition zone ([1]; F2 of Example 1, 5 μg/ml in test solution, 0.05 μg/ml cefmenoxime): 15 mm
- Diameter of growth inhibition zone [1, 6]: < 8 mm
- Diameter of growth inhibition zone ([1]; F2 of Example 1, 25 μg/ml in test solution, 0.03 μg/ml mecillinam): 18 mm
- Diameter of growth inhibition zone ([1]; F2 of Example 1, 25 μg/ml in test solution, 0.05 μg/ml cefmenoxime): 24 mm
- Diameter of growth inhibition zone [1, 7]: < 8 mm
- Diameter of growth inhibition zone ([1]; F2 of Example 1, 125 μg/ml in test solution, 0.03 μg/ml mecillinam): 24 mm
- Diameter of growth inhibition zone ([1]; F2 of Example 1, 125 μg/ml in test solution, 0.05 μg/ml cefmenoxime): 32 mm
- Diameter of growth inhibition zone [1, 8]: < 8 mm
- Diameter of growth inhibition zone ([1]; F2 of Example 1, 1000 μg/ml in test solution, 0.03 μg/ml mecillinam): 30 mm
- Diameter of growth inhibition zone ([1]; F2 of Example 1, 1000 μg/ml in test solution, 0.05 μg/ml cefmenoxime): 40 mm
- Diameter of growth inhibition zone [1, 9]: < 8 mm
- Diameter of growth inhibition zone ([1]; F2 of Example 3, 1 μg/ml in test solution, 0.03 μg/ml mecillinam): < 8 mm
- Diameter of growth inhibition zone ([1]; F2 of Example 3, 1 μg/ml in test solution, 0.05 μg/ml cefmenoxime): 9 mm
- Diameter of growth inhibition zone [1, 10]: < 8 mm
- Diameter of growth inhibition zone ([1]; F2 of Example 3, 5 μg/ml in test solution, 0.03 μg/ml mecillinam): 9 mm
- Diameter of growth inhibition zone ([1]; F2 of Example 3, 5 μg/ml in test solution, 0.05 μg/ml cefmenoxime): 14 mm
- Diameter of growth inhibition zone [1, 11]: < 8 mm
- Diameter of growth inhibition zone ([1]; F2 of Example 3, 25 μg/ml in test solution, 0.03 μg/ml mecillinam): 19 mm
- Diameter of growth inhibition zone ([1]; F2 of Example 3, 25 μg/ml in test solution, 0.05 μg/ml cefmenoxime): 23 mm
- Diameter of growth inhibition zone [1, 12]: < 8 mm
- Diameter of growth inhibition zone ([1]; F2 of Example 3, 125 μg/ml in test solution, 0.03 μg/ml mecillinam): 23 mm
- Diameter of growth inhibition zone ([1]; F2 of Example 3, 125 μg/ml in test solution, 0.05 μg/ml cefmenoxime): 31 mm
- Diameter of growth inhibition zone [1, 13]: < 8 mm
- Diameter of growth inhibition zone ([1]; F2 of Example 3, 1000 μg/ml in test solution, 0.03 μg/ml mecillinam): 29 mm
- Diameter of growth inhibition zone ([1]; F2 of Example 3, 1000 μg/ml in test solution, 0.05 μg/ml cefmenoxime): 39 mm
- Diameter of growth inhibition zone [1, 14]: < 8 mm
- Diameter of growth inhibition zone ([2]; F2 of Example 1, 1 μg/ml in test solution, 0.01 μg/ml cefmenoxime): 9 mm
- Diameter of growth inhibition zone ([2]; F2 of Example 1, 1 μg/ml in test solution, 0.05 μg/ml mecillinam): 9 mm
- Diameter of growth inhibition zone [2, 5]: < 8 mm
- Diameter of growth inhibition zone ([2]; F2 of Example 1, 5 μg/ml in test solution, 0.01 μg/ml cefmenoxime): 13 mm
- Diameter of growth inhibition zone ([2]; F2 of Example 1, 5 μg/ml in test solution, 0.05 μg/ml mecillinam): 11 mm
- Diameter of growth inhibition zone [2, 6]: < 8 mm
- Diameter of growth inhibition zone ([2]; F2 of Example 1, 25 μg/ml in test solution, 0.01 μg/ml cefmenoxime): 23 mm
- Diameter of growth inhibition zone ([2]; F2 of Example 1, 25 μg/ml in test solution, 0.05 μg/ml mecillinam): 19 mm
- Diameter of growth inhibition zone [2, 7]: < 8 mm
- Diameter of growth inhibition zone ([2]; F2 of Example 1, 125 μg/ml in test solution, 0.01 μg/ml cefmenoxime): 30 mm
- Diameter of growth inhibition zone ([2]; F2 of Example 1, 125 μg/ml in test solution, 0.05 μg/ml mecillinam): 26 mm
- Diameter of growth inhibition zone [2, 8]: < 8 mm
- Diameter of growth inhibition zone ([2]; F2 of Example 1, 1000 μg/ml in test solution, 0.01 μg/ml cefmenoxime): 38 mm
- Diameter of growth inhibition zone ([2]; F2 of Example 1, 1000 μg/ml in test solution, 0.05 μg/ml mecillinam): 32 mm
- Diameter of growth inhibition zone [2, 9]: < 8 mm
- Diameter of growth inhibition zone ([2]; F2 of Example 3, 1 μg/ml in test solution, 0.01 μg/ml cefmenoxime): 9 mm
- Diameter of growth inhibition zone ([2]; F2 of Example 3, 1 μg/ml in test solution, 0.05 μg/ml mecillinam): 9 mm
- Diameter of growth inhibition zone [2, 10]: < 8 mm
- Diameter of growth inhibition zone ([2]; F2 of Example 3, 5 μg/ml in test solution, 0.01 μg/ml cefmenoxime): 12 mm
- Diameter of growth inhibition zone ([2]; F2 of Example 3, 5 μg/ml in test solution, 0.05 μg/ml mecillinam): 12 mm
- Diameter of growth inhibition zone [2, 11]: < 8 mm
- Diameter of growth inhibition zone ([2]; F2 of Example 3, 25 μg/ml in test solution, 0.01 μg/ml cefmenoxime): 22 mm
- Diameter of growth inhibition zone ([2]; F2 of Example 3, 25 μg/ml in test solution, 0.05 μg/ml mecillinam): 19 mm
- Diameter of growth inhibition zone [2, 12]: < 8 mm
- Diameter of growth inhibition zone ([2]; F2 of Example 3, 125 μg/ml in test solution, 0.01 μg/ml cefmenoxime): 29 mm
- Diameter of growth inhibition zone ([2]; F2 of Example 3, 125 μg/ml in test solution, 0.05 μg/ml mecillinam): 25 mm
- Diameter of growth inhibition zone [2, 13]: < 8 mm
- Diameter of growth inhibition zone ([2]; F2 of Example 3, 1000 μg/ml in test solution, 0.01 μg/ml cefmenoxime): 38 mm
- Diameter of growth inhibition zone ([2]; F2 of Example 3, 1000 μg/ml in test solution, 0.05 μg/ml mecillinam): 32 mm
- Diameter of growth inhibition zone [2, 14]: < 8 mm
- Absorbance at 600 nm ([3]; final F2 (Example 1) 1 μg/ml, 1 μg/ml cefmenoxime): 0.60
- Absorbance at 600 nm ([3]; final F2 (Example 1) 1 μg/ml, 5 μg/ml cephalexin): 1.80
- Absorbance at 600 nm ([3]; final F2 (Example 1) 1 μg/ml, no addition): 2.65
- Absorbance at 600 nm ([3]; final F2 (Example 1) 10 μg/ml, no addition): 2.65
- Inhibition of growth of Escherichia coli ([3]; in the presence of cephalexin or cefmenoxime, decrease in absorbance): inhibits the growth of Escherichia coli
- Swelling and bacteriolysis under phase contrast microscope (Escherichia coli): partial swelling occurred and bacteriolysis proceeded
- Elongation of cells under phase contrast microscope (Escherichia coli; in dependence on the addition level): elongation was inhibited
- Absorbance at 600 nm ([4]; final F2 (Example 1) 10 μg/ml, 1 μg/ml cefmenoxime): 0.25
- Absorbance at 600 nm ([4]; final F2 (Example 1) 10 μg/ml, 5 μg/ml cephalexin): 1.00
- Absorbance at 600 nm ([4]; final F2 (Example 1) 100 μg/ml, 1 μg/ml cefmenoxime): 0.30
- Absorbance at 600 nm ([4]; final F2 (Example 1) 100 μg/ml, 5 μg/ml cephalexin): 0.95
- Absorbance at 600 nm ([4]; final F2 (Example 1) 100 μg/ml, no addition): 2.70
- Absorbance at 600 nm ([4]; final F2 (Example 3) 1 μg/ml, 1 μg/ml cefmenoxime): 0.55
- Absorbance at 600 nm ([4]; final F2 (Example 3) 1 μg/ml, 5 μg/ml cephalexin): 1.75
- Absorbance at 600 nm ([4]; final F2 (Example 3) 1 μg/ml, no addition): 2.45
- Absorbance at 600 nm ([4]; final F2 (Example 3) 10 μg/ml, 1 μg/ml cefmenoxime): 0.25
- Absorbance at 600 nm ([4]; final F2 (Example 3) 10 μg/ml, 5 μg/ml cephalexin): 1.90
- Absorbance at 600 nm ([4]; final F2 (Example 3) 10 μg/ml, no addition): 2.50
- Absorbance at 600 nm ([4]; final F2 (Example 3) 100 μg/ml, 1 μg/ml cefmenoxime): 0.25
- Absorbance at 600 nm ([4]; final F2 (Example 3) 100 μg/ml, 5 μg/ml cephalexin): 0.75
- Absorbance at 600 nm ([4]; final F2 (Example 3) 100 μg/ml, no addition): 2.55
